The source of these data is PMC3038857, “Using Nuclear Receptor Activity to Stratify Hepatocarcinogens” (PLoS ONE, 2011).

One data set relates to LXR (NR1H3). The data set is described as follows: ATG_DR4_LXR_CIS: Factorial reporter gene assay (HepG2). Type of data set: cell-based, human. Set-up: scale not given here. As to conditions: scale not given, looks like -log10 of molar active concentration, 0 = no activity. How it is done: A multiple reporter transcription unit (MRTU) library consisting of 48 transcription factor binding sites was transfected into the HepG2 human liver hepatoma cell line. In addition to the cis-acting reporter genes (CIS), a modification of the approach was used to generate a trans-system (TRANS) with a mammalian one-hybrid assay consisting of an additional 25 MRTU library reporting the activity of nuclear receptor super-family members. […] These assays were performed by Attagene Inc. (Morrisville NC) under contract to EPA.
In addition to the cis-acting reporter genes (CIS), a modification of the approach was used to generate a trans-system (TRANS) with a mammalian one-hybrid assay consisting of an additional 25 MRTU library reporting the activity of nuclear receptor super-family members. […] Chemicals were then tested in the CIS and TRANS assays at seven concentrations starting at the MTC and followed by three-fold serial dilutions. These assays were performed by Attagene Inc. (Morrisville NC) under contract to EPA. Detailed description of the methods, data and analysis methods for this dataset will be presented in a separate publication.
On the technique in general: Reporter assays use an easily measured gene product as a stand-in for the process of interest.

Another data set addresses T1, LXRb (NR1H2) (Homo sapiens, UniProt P55055).
T1 construct: expressed in transfected cells; host or cells: HepG2
T1 sequence (P55055 1-460): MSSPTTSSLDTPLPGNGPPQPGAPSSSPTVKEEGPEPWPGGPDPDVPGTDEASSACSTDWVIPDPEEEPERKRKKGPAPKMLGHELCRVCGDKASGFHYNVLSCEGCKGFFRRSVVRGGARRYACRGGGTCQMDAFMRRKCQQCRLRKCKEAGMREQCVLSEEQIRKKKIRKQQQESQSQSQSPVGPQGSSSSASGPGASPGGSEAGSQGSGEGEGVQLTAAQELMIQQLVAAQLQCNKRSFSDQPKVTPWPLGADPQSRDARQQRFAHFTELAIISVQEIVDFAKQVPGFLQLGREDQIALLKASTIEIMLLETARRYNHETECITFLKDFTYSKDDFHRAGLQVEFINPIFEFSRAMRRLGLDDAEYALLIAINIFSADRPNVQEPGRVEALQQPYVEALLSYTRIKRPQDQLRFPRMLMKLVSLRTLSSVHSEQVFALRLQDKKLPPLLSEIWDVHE
Put plainly: ATG_LXRb_TRANS: Factorial reporter gene assay (HepG2). Format: cell-based. As to conditions: HepG2; scale not given, looks like -log10 of molar active concentration; 0 = no activity. The method in brief: (§1)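 Seven concentrations per chemical, three-fold dilutions down from the MTC, were tested in HepG2 hepatoma cells. Those cells carried a multiple reporter transcription unit library, read either as cis transcription-factor-site reporters or as a trans mammalian one-hybrid panel for nuclear receptors.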

Data set [1] has as its target T2, RXRB (retinoid X receptor, beta) (Homo sapiens, UniProt P28702).
T2 construct: expressed in transfected cells; host or cells: HepG2
T2 sequence (P28702 1-533): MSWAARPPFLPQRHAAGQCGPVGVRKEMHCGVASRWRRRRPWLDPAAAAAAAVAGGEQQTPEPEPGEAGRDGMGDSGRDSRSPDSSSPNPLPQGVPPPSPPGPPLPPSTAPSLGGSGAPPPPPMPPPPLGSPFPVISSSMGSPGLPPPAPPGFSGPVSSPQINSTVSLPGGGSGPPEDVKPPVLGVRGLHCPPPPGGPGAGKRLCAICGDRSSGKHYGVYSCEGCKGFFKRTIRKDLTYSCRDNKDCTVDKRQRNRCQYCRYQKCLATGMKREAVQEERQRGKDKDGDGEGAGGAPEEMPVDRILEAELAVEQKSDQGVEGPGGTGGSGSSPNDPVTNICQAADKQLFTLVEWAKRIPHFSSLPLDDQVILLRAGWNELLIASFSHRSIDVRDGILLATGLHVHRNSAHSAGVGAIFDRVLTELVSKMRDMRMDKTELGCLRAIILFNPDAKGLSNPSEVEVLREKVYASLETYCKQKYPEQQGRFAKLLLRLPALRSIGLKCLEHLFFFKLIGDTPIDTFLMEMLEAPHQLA
Put plainly: ATG_RXRb_TRANS: Factorial reporter gene assay (HepG2). Format: cell-based. As to conditions: HepG2; scale not given, looks like -log10 of molar active concentration; 0 = no activity. The method in brief: as §1

Another data set concerns the target T3, PXR Human (NR1I2) (Homo sapiens, UniProt O75469).
T3 sequence (O75469 146-434 limits assumed): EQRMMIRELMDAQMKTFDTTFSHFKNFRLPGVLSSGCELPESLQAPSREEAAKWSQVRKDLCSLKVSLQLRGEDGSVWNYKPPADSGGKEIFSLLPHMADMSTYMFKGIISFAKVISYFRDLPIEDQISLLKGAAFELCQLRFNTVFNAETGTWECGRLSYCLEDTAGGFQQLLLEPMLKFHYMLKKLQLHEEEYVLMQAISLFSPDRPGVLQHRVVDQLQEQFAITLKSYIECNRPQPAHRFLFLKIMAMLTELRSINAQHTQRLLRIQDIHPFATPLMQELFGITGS
The data set is described as follows: NCGC_PXR_Agonist_human: GAL4 BLAM Reporter gene assay: PXR Human. Type of data set: cell-based. The settings on record: agonist mode; scale not given, looks like -log10 of molar active concentration; 0 = no activity. The method in brief:
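Tox21 cell-based screens at NCGC using GAL4-fused receptor beta-lactamase reporters. Responses active only at the top concentration (above 50%) were discarded, and fits needed R^2 of at least 0.5.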

In data set [2] the test system is Rat Liver. As to conditions: rat chronic study, liver, any lesion; coded 6 / 0, code not explained here; ref ToxRefDB; cited from earlier work.
Data set [3] relates to Rat Liver. The settings on record: rat chronic study, liver, neoplastic lesion; coded 6 / 0, code not explained here; ref ToxRefDB; cited from earlier work.
For a further data set, the target named is T4, PXR (NR1I2) (Homo sapiens, UniProt O75469).
T4 sequence (O75469 1-434): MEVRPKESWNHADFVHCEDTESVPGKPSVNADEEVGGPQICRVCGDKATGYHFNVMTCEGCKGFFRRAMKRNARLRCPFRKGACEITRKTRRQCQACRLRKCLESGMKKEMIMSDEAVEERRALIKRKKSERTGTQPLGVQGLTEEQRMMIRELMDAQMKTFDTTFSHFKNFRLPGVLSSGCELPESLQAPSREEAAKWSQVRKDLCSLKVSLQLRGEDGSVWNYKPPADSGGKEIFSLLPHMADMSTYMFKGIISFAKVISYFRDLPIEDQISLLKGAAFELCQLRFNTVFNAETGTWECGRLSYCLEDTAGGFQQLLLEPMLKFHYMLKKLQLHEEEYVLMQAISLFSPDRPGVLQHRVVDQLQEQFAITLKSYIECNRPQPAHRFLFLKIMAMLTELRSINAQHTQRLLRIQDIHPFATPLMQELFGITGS
The data set is described as follows: ATG_PXR_TRANS: Factorial reporter gene assay (HepG2). Format: cell-based. Set-up: endogenous in cells; host or cells: HepG2. The settings on record: HepG2; scale not given, looks like -log10 of molar active concentration; 0 = no activity. Put shortly: as §1

On to `Cc1ccccc1CO[C@@H]1C[C@@]2(C(C)C)CC[C@]1(C)O2` [r64], for which the ATG_DR4_LXR_CIS in the data set on LXR (NR1H3) worked out at 0. Moreover, the ATG_LXRb_TRANS on LXRb (NR1H2) amounted to 0. Further, the ATG_RXRb_TRANS in data set [1] is on record as 0. Further, at PXR Human (NR1I2), the NCGC_PXR_Agonist_human is 0. Moreover, in the data set on Rat Liver [2], the CHR_Rat_Liver_1_AnyLesion is listed as 6. Besides, the CHR_Rat_Liver_3_NeoplasticLesion with Rat Liver [3] is recorded as 0. Besides, the ATG_PXR_TRANS at PXR (NR1I2) stood at 5.18.
